Source: US10952433B2, “Solutions for enhancing the effectiveness of insecticides and fungicides on living plants and related methods” (priority 2015, dated 2021)

Legend:
[1] = system: staining fungi (macerated fungal blend); experiment: Staining fungi coverage in inoculated stem wound of red oak seedlings, greenhouse (Table 6)
Protocol: In performing the tests employing ten red oak seedlings per iteration with the materials being tested applied at approximately 12 milliliters per seeding applied with a low volume hand spray. […] Seven days after application, a sterile razor blade wound of approximately 2 millimeters by 10 millimeters was created on each seedling stem. Immediately after, the wounding 1 ml of macerated fungal blend suspended in distilled water was applied to each stem wound. Twenty-eight days after wounding, the wounds were evaluated for an average percentage of staining fungi present in each seedling stem wound. Opaque black straw covering was applied to each wound. The opaque black straws were applied within about one minute after wounding and inoculation with the fungi. […] The purpose for using such straws is to facilitate the creation of a dark environment on the wound as fungi tend to like dark damp places. This is employed to enhance the effectiveness of the test by accelerating the severity of the fungal growing conditions. Each stem wound was given two ml of distilled water 10, 17, 21 and 28 days after wounding by a low volume trigger spray. All solutions were included a propylene glycol based dye at a concentration of 100:1. The greenhouse conditions were maintained at 65° F. to 85° F. and the humidity range of 30 to 80% relative humidity. The test which employed the combination of thiabendazole, fludioxonil and azoxystrobin was obtained as a formulated pesticide product which was available under the trade designation “Sporgard”.
The final column is a numerical grade which represents the percent of staining fungi coverage in percentage in the stem wound of the red oak seedlings as measured on day 28.

[2] = system: staining fungi of the ceratocystis variety; experiment: Staining fungi in stem wound of white oak seedlings after trunk spray (Table 4); format: in vivo, ceratocystis (on white oak seedlings)
Protocol: Fourteen days after the stem wounding, wounds were examined for the presence of staining fungi. In creating these for solution were used the buffer and amine oxides were added to the dilute solution of fungicide.
Referring to TABLE 4 wherein a commonly used fungicide, Propiconazole was employed in tests in the amount of 50:200 PPM (parts per million) employed with and without buffered amine oxides systems 3 and 4 with some of the tests employing the 12 carbon length and others, the 1218 carbon mixture. In a preferred embodiment in 1218 on a weight basis, the 12 carbon length will be present in an amount of about 1.3 to 2.0 times the amount of 18 carbon length and in the preferred range about 1.5 to 1.8 times the amount of 18 carbon length. The tests were performed on white oak seedlings which were provided with a stem wound in which was introduced staining fungi which was of the ceratocystis variety.
The method of testing the materials was to spray the trunk of the seedling with the particular solution being tested and 7 days after such application, creating a wound of approximately 2 millimeters by 10 millimeters on each seedling stem. Fourteen days after the wounding, the wounds were examined for the presence of staining fungi.

[3] = fungicide + Amine Oxide 12 (No Buffer) 200:1, PPM: Thiabendazole/Fludioxonil/Azoxystrobin 160, Chlorothalonil 1235, Propiconazole 102, Mancozeb 1097, Vinclozolin 122, Mefenoxam 20
[4] = fungicide + Amine Oxide 1218 (No Buffer) 200:1, PPM: Thiabendazole/Fludioxonil/Azoxystrobin 160, Chlorothalonil 1235, Propiconazole 103, Mancozeb 1097, Vinclozolin 122, Mefenoxam 20
[5] = fungicide + Buffer System 3 200:1, no amine oxide, PPM: Thiabendazole/Fludioxonil/Azoxystrobin 160, Chlorothalonil 1235, Propiconazole 101, Mancozeb 1097, Vinclozolin 122, Mefenoxam 20
[6] = fungicide + buffered amine oxide, Buffer System 3, amine oxide 12, 200:1, PPM: Thiabendazole/Fludioxonil/Azoxystrobin 160, Chlorothalonil 1235, Propiconazole 105, Mancozeb 1097, Vinclozolin 122, Mefenoxam 20
[7] = fungicide + buffered amine oxide, Buffer System 3, amine oxide 1218, 200:1, PPM: Thiabendazole/Fludioxonil/Azoxystrobin 160, Chlorothalonil 1235, Propiconazole 107, Mancozeb 1097, Vinclozolin 122, Mefenoxam 20
[8] = fungicide alone, highest amount, PPM: Thiabendazole/Fludioxonil/Azoxystrobin 640, Chlorothalonil 4940, Propiconazole 400, Mancozeb 4388, Vinclozolin 488, Mefenoxam 80
[9] = fungicide alone, increased amount, PPM: Thiabendazole/Fludioxonil/Azoxystrobin 320, Chlorothalonil 2470, Propiconazole 200, Mancozeb 2194, Vinclozolin 244, Mefenoxam 40
[10] = fungicide alone, PPM: Thiabendazole/Fludioxonil/Azoxystrobin 160, Chlorothalonil 1235, Propiconazole 100, Mancozeb 1097, Vinclozolin 122, Mefenoxam 20

Compound | Percent of Staining Fungi Coverage Average (%) in Stem Wound of Red Oak Seedlings (Day 28) [1, 3] | Percent of Staining Fungi Coverage Average (%) in Stem Wound of Red Oak Seedlings (Day 28) [1, 4] | Percent of Staining Fungi Coverage Average (%) in Stem Wound of Red Oak Seedlings (Day 28) [1, 5] | Percent of Staining Fungi Coverage Average (%) in Stem Wound of Red Oak Seedlings (Day 28) [1, 6] | Percent of Staining Fungi Coverage Average (%) in Stem Wound of Red Oak Seedlings (Day 28) [1, 7] | Percent of Staining Fungi Coverage Average (%) in Stem Wound of Red Oak Seedlings (Day 28) [1, 8] | Percent of Staining Fungi Coverage Average (%) in Stem Wound of Red Oak Seedlings (Day 28) [1, 9] | Percent of Staining Fungi Coverage Average (%) in Stem Wound of Red Oak Seedlings (Day 28) [1, 10] | Percent of Seedlings with Staining Fungi in Stem Wound of White Oak ([2]; Propiconazole 50 PPM + buffered amine oxide system 3, amine oxide 12, 200:1) | Percent of Seedlings with Staining Fungi in Stem Wound of White Oak ([2]; Propiconazole 50 PPM + buffered amine oxide system 3, amine oxide 12, 400:1) | Percent of Seedlings with Staining Fungi in Stem Wound of White Oak ([2]; Propiconazole 50 PPM + buffered amine oxide system 3, amine oxide 1218, 200:1) | Percent of Seedlings with Staining Fungi in Stem Wound of White Oak ([2]; Propiconazole 50 PPM + buffered amine oxide system 3, amine oxide 1218, 400:1) | Percent of Seedlings with Staining Fungi in Stem Wound of White Oak ([2]; Propiconazole 50 PPM + buffered amine oxide system 4, amine oxide 12, 200:1) | Percent of Seedlings with Staining Fungi in Stem Wound of White Oak ([2]; Propiconazole 50 PPM + buffered amine oxide system 4, amine oxide 12, 400:1) | Percent of Seedlings with Staining Fungi in Stem Wound of White Oak ([2]; Propiconazole 50 PPM + buffered amine oxide system 4, amine oxide 1218, 200:1) | Percent of Seedlings with Staining Fungi in Stem Wound of White Oak ([2]; Propiconazole 50 PPM + buffered amine oxide system 4, amine oxide 1218, 400:1) | Percent of Seedlings with Staining Fungi in Stem Wound of White Oak ([2]; Propiconazole 50 PPM alone, 14 days after wounding) | Percent of Seedlings with Staining Fungi in Stem Wound of White Oak ([2]; Propiconazole 100 PPM alone, 14 days after wounding) | Percent of Seedlings with Staining Fungi in Stem Wound of White Oak ([2]; Propiconazole 200 PPM alone, 14 days after wounding)
N#Cc1c(Cl)c(Cl)c(Cl)c(C#N)c1Cl [Chlorothalonil] | 64% | 55% | 72% | 27% | 33% | 37% | 49% | 91% |  |  |  |  |  |  |  |  |  |  | 
COCC(=O)N(c1c(C)cccc1C)[C@H](C)C(=O)OC [Mefenoxam] | 38% | 25% | 52% | 16% | 21% | 23% | 42% | 64% |  |  |  |  |  |  |  |  |  |  | 
CCCC1COC(Cn2cncn2)(c2ccc(Cl)cc2Cl)O1 (stereo not drawn) [Propiconazole] | 43% | 55% | 74% | 20% | 44% | 33% | 81% | 85% | 0% | 20% | 0% | 0% | 0% | 20% | 0% | 0% | 100% | 80% | 20%
C=CC1(C)OC(=O)N(c2cc(Cl)cc(Cl)c2)C1=O (stereo not drawn) [Vinclozolin] | 32% | 16% | 49% | 17% | 38% | 15% | 21% | 43% |  |  |  |  |  |  |  |  |  |  | 
Mancozeb | 58% | 30% | 67% | 24% | 30% | 22% | 35% | 74% |  |  |  |  |  |  |  |  |  |  | 
